Laboratory results from the supplement of paper PMC10307832.

Tests used:
Assay in all cases: relative viability (nuclei count vs DMSO), 5 days (fraction); higher = more cells survive
CUDC-101 + Palbociclib = compound: C#Cc1cccc(Nc2ncnc3cc(OC)c(OCCCCCCC(=O)NO)cc23)c1 [CUDC-101] + CC(=O)c1c(C)c2cnc(Nc3ccc(N4CCNCC4)cn3)nc2n(C2CCCC2)c1=O [Palbociclib] (partner 0.5 µM)
Procedure, shortened: (§1)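 Relative viability was taken as the ratio of nuclei in treated wells to nuclei in vehicle wells. Lung cancer cell lines in 1536-well plates received compounds by pin tool one day after seeding, either one drug alone or a fixed anchor-drug dose plus five library-drug doses (not always all listed) in √10 steps. Nuclei were counted on 4× images after 5 days of treatment, and values are medians of duplicate plates.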

NVP-TAE684 + Phenformin = compound: COc1cc(N2CCC(N3CCN(C)CC3)CC2)ccc1Nc1ncc(Cl)c(Nc2ccccc2S(=O)(=O)C(C)C)n1 [NVP-TAE684] + N=C(N)NC(=N)NCCc1ccccc1 [Phenformin] (partner 250 µM)
Procedure, shortened: as §1

[1] = compound: C1=CC=C2C(=C1)N=C(S2)C(C#N)C3=NC(=NC=C3)NCCC4=CN=CC=C4 + Cc1nc(Nc2ncc(C(=O)Nc3c(C)cccc3Cl)s2)cc(N2CCN(CCO)CC2)n1 [Dasatinib] (partner 0.075 µM)
Procedure, shortened: as §1

[2] = compound: C1=CC=C2C(=C1)N=C(S2)C(C#N)C3=NC(=NC=C3)NCCC4=CN=CC=C4 + CC(C)C[C@H](NC(=O)[C@H](Cc1ccccc1)NC(=O)c1cnccn1)B(O)O [Bortezomib] (partner 0.002 µM)
Procedure, shortened: as §1

Row | Cell Line | relative viability (CUDC-101 + Palbociclib; first compound 0.01 µM) | relative viability (CUDC-101 + Palbociclib; first compound 0.03162 µM) | relative viability (CUDC-101 + Palbociclib; first compound 0.1 µM) | relative viability (CUDC-101 + Palbociclib; first compound 0.3162 µM) | relative viability (CUDC-101 + Palbociclib; first compound 1 µM) | relative viability (NVP-TAE684 + Phenformin; first compound 0.2 µM) | relative viability (NVP-TAE684 + Phenformin; first compound 0.6325 µM) | relative viability (NVP-TAE684 + Phenformin; first compound 2 µM) | relative viability ([1]; first compound 0.005 µM) | relative viability ([1]; first compound 0.01581 µM) | relative viability ([1]; first compound 0.05 µM) | relative viability ([1]; first compound 0.1581 µM) | relative viability ([1]; first compound 0.5 µM) | relative viability ([2]; first compound 0.005 µM) | relative viability ([2]; first compound 0.01581 µM) | relative viability ([2]; first compound 0.05 µM) | relative viability ([2]; first compound 0.1581 µM) | relative viability ([2]; first compound 0.5 µM)
1 | 201T | 0.332 | 0.38 | 0.347 | 0.344 | 0.353 | 0.421 | 0.437 | 0.38 | 0.799 | 0.523 | 0.599 | 0.549 | 0.486 | 1.1 | 1.09 | 1.09 | 1.09 | 1.11
2 | A549 | – | – | – | – | – | 0.153 | 0.171 | 0.122 | – | – | – | – | – | – | – | – | – | –
3 | A-427 | 0.562 | 0.538 | 0.501 | 0.496 | 0.487 | 0.285 | 0.257 | 0.221 | 0.66 | 0.743 | 0.764 | 0.688 | 0.822 | 0.934 | 1.07 | 0.968 | 1.02 | 0.974
4 | ABC-1 | 0.647 | 0.682 | 0.864 | 0.587 | 0.454 | 0.218 | 0.226 | 0.122 | 0.634 | 0.459 | 0.631 | 0.573 | 0.397 | 0.348 | 0.292 | 0.262 | 0.313 | 0.387
5 | BEN | 0.432 | 0.477 | 0.522 | 0.513 | 0.479 | 0.257 | 0.285 | 0.231 | 0.229 | 0.323 | 0.326 | 0.479 | 0.425 | 0.699 | 0.818 | 0.869 | 1.02 | 0.893
6 | CAL-12T | 0.81 | 0.448 | 0.333 | 0.412 | 0.34 | 0.365 | 0.472 | 0.117 | 0.236 | 0.308 | 0.341 | 0.508 | 0.242 | 0.83 | – | – | 1.2 | 0.54
7 | COR-L23 | 0.275 | 0.332 | 0.283 | 0.253 | 0.128 | 0.329 | 0.406 | 0.201 | 0.427 | 0.516 | 0.499 | 0.581 | 0.489 | 0.891 | 1 | 1.08 | 1.16 | 0.925
8 | COR-L 105 | 0.383 | 0.404 | 0.408 | 0.427 | 0.294 | 0.457 | 0.259 | 0.211 | 0.344 | 0.297 | 0.34 | 0.303 | 0.29 | 0.725 | 0.583 | 0.723 | 0.783 | 0.666
9 | Calu-6 | – | – | – | – | – | – | – | – | – | – | – | – | – | 0.943 | 0.946 | 0.912 | 1.02 | 0.915
10 | ChaGo-K-1 | 0.918 | 0.908 | 0.94 | 0.909 | 0.738 | 0.533 | 0.457 | 0.339 | – | 0.567 | 0.577 | 0.681 | 0.545 | 0.87 | – | 0.936 | 1.1 | 0.845
11 | EBC-1 | – | – | – | – | – | – | – | – | – | – | – | – | – | 0.52 | 0.545 | 0.544 | 0.666 | 0.504
12 | EKVX | 0.374 | 0.335 | 0.336 | 0.405 | 0.323 | 0.24 | 0.23 | 0.208 | 0.464 | 0.473 | 0.523 | 0.473 | 0.547 | 0.94 | 1.13 | 1.1 | 1.31 | 0.996
13 | EMC-BAC-2 | 0.546 | 0.514 | 0.502 | 0.502 | 0.375 | 0.402 | 0.464 | 0.319 | 0.334 | 0.359 | 0.364 | 0.388 | 0.324 | 0.998 | 1.05 | 1.06 | 1.12 | 0.945
14 | EPLC-272H | 0.318 | 0.314 | 0.279 | 0.282 | 0.261 | 0.282 | 0.267 | 0.146 | 0.283 | 0.304 | 0.264 | 0.374 | 0.312 | 0.772 | 0.777 | 0.958 | 1.03 | 0.738
15 | H3255 | 0.335 | 0.351 | 0.324 | 0.292 | 0.238 | 0.348 | 0.397 | 0.453 | 0.312 | 0.329 | 0.346 | 0.509 | 0.319 | 0.705 | 0.696 | 0.694 | 0.837 | 0.749
16 | HARA | 0.278 | 0.204 | 0.246 | 0.224 | 0.172 | 0.397 | 0.394 | 0.304 | 0.355 | 0.281 | 0.246 | 0.235 | 0.372 | 1.22 | 1.04 | 1.14 | 1.18 | 0.859
17 | HCC-15 | 0.737 | 0.74 | 0.793 | 0.818 | 0.648 | 0.495 | 0.396 | 0.238 | 0.569 | 0.578 | 0.564 | 0.703 | 0.508 | 0.835 | 1.02 | 1.15 | 1.13 | 0.835
